Data as given in patent publication US20040048827A1, “S-adenosylmethionine and derivatives thereof for the treatment and prevention of alzheimer's disease” (priority 2000, published 2004).
“Also recorded” adds a separate entry of the source.

Legend:
[1] = test system: presenilin-1 protein; test: Western blot of presenilin-1 protein in SK-N-SH cells; format: cell-based, human; settings: DM with 100 μM SAM, 120 hours (5 days) of culture
Description: (§1) SK-N-SH human neuroblastoma cell line was cultured, respectively, in HAM F14 (14) medium supplemented with 8-% foetal calf serum (GM), in F14 medium supplemented with 1% foetal calf serum and 10 μM retinopic acid (DM) and in DM, in the presence of 100 μM SAM. The cultures were re-fed every second day with the appropriate medium. The times indicate-are referred-to medium change as O-day.
(§2) Detergent lysates were prepared from SK-N-SH cells in the presence of protease inhibitors (leupeptin, pepstatin, PMSF, 5 μg/ml each); protein extracts were performed after 5 days of culture in either GM or DM or DM supplemented with 100 μM SAM.
(§3) 10 μg of each protein extract were run on 8% PAGE for APP analysis and on 12% PAGE for PS1 analysis, and then blotted on nitrocellulose. APP was detected by a monoclonal antibody 22C11 (Boerhinger Mannheim) recognising three major bands at 116, 110, 106 KD. PS1 was detected by a monoclonal antibody (MAB1563 Chemicon) recognising a 31 KD band.

[2] = test system: β-secretase gene; test: RT-PCR expression of β-secretase gene in SK-N-SH cells; format: cell-based, human
Description: as §1
(§4) Total RNA extraction was carried out using the acidified phenol procedure. For the expression studies by RT-PCR a reverse transcription was performed with 1 μg of total RNA using 50 pmol of oligo-d(T>)16 with 50 units of M-MuLV reverse transcriptase at 42° C. for one hour, followed by heat inactivation at 94° C. for 5 minutes. […] The subsequent amplification reactions were carried out for 20 to 30 cycles (1′ at 94° C., 1′ at annealing temperature, 1′30″ at 72° C.). The use of β-actin as internal standard allowed to control the processing of equal amount samples.
(§5) Aliquots of the PCR products (15 μl) were examined by electrophoresis in 1.5% agarose gel. Each gel was scanned by a CCD camera and acquired on a computerised densitometer. The specificity of the fragments was assessed by restriction analysis.

[3] = test system: β-amyloid protein precursor (APP) gene; test: RT-PCR expression of β-amyloid protein precursor gene in SK-N-SH cells; format: cell-based, human
Description: as §1, §4, §5

[4] = test system: presenilin-2 (PS2) gene; test: RT-PCR expression of presenilin-2 gene in SK-N-SH cells; format: cell-based, human
Description: as §1, §4, §5

[5] = test system: presenilin-1 (PS1) gene; test: RT-PCR expression of presenilin-1 gene in SK-N-SH cells; format: cell-based, human
Description: as §1, §4, §5

[6] = test system: Notch1 gene; test: RT-PCR expression of Notch1 gene in SK-N-SH cells; format: cell-based, human; settings: SAM in DM, 48 and 96 hours of culture
Description: as §1, §4, §5

[7] = test system: Adam 10 gene; test: RT-PCR expression of Adam 10 (α-secretase) gene in SK-N-SH cells; format: cell-based, human; settings: SAM in DM, 48 and 96 hours of culture (signal apparent only at 48 hours)
Description: as §1, §4, §5

[8] = test system: 1-40 β-amyloid peptide; test: ELISA of 1-40 β-amyloid peptide production in SK-N-SH cell culture supernatants; format: cell-based, human; settings: SAM in DM vs DM, supernatants after 96 and 120 hours, normalised to cell protein
Description: as §1
Cell culture supernatants were collected and frozen after 96 and 120 hours from the beginning of the culture. Successively they were concentrated using Amicon micro-concentrators according to the manufacturer instructions. 100 μl of concentrated medium were used to perform the immunoassay employing, according to the manufacturer instructions, the Biosource International kit for the detection of 1-40 amyloid. The amount of β-amyloid was normalised to the concentration of the proteins extracted from the corresponding cell lysates.

[9] = test system: SK-N-SH human neuroblastoma cells; test: HPLC assay of S-adenosylmethionine passage into the cells; format: in vitro ADME
Description: as §1
Cell cultures were rinsed twice with phosphate buffered saline and frozen at −80° C. After thawing cells were scraped into 1 ml of deionized water and sonified for 15 seconds in ice. The macromolecules were precipitated from 1.5 M PCA at 4° C. for 1 hour adjusting the pH at 4-5 with KOH and then centrifuged for 15 minutes at 9000×g. The supernatants were freeze-dried. The HPLC measurements were carried out using a Varian HPLC System. The samples were dissolved in water and injected onto reverse-phase column (C-18) using a water-acetonitrile mobile-phase.

[10] = test system: Adam 17 gene; test: RT-PCR expression of Adam 17 (α-secretase) gene in SK-N-SH cells; format: cell-based, human; settings: SAM in DM, 48 and 96 hours of culture
Description: as §1, §4, §5

[11] = test system: APP; test: Western blot of APP in SK-N-SH cells; format: cell-based, human; settings: GM, DM, DM with 100 μM SAM, 120 hours of culture
Description: as §1, §2, §3

[12] = SK-N-SH cells, administration into the cell culture, RT-PCR
[13] = DM with 100 μM SAM, 96 hours, compared to 96 hours without SAM

## S-adenosylmethionine disulfonate
[1]
  presenilin-1 protein synthesis (Western blot): dramatic decrease
[2]; [12]
  β-secretase gene expression: block of the expression increase
[3]; [12]
  β-amyloid protein precursor gene expression: block of the expression increase
[4]; [12]
  presenilin-2 gene expression: block of the expression increase
[5]; [12]
  presenilin-1 gene expression: remarkable repression

## C[S+](CC[C@H](N)C(=O)O)C[C@H]1O[C@@H](n2cnc3c(N)ncnc32)[C@H](O)[C@@H]1O (stereo partly drawn) [SAM, S-adenosylmethionine]
[6]
  Notch1 gene expression: comparable to that observed in GM at 48 hours; also recorded: does not modify
[6]; listed as S-adenosylmethionine
  Notch1 gene expression: increased
[7]
  Adam 10 gene expression: the same as that detectable in DM
[7]; listed as S-adenosylmethionine
  Adam 10 gene expression: increased
[1]
  presenilin-1 protein synthesis (Western blot): marked reduction
[2]; DM with 100 μM SAM, 48 hours
  β-secretase gene expression at 48 hours: accelerate the gene expression
[2]; [13]
  β-secretase gene expression at 96 hours: did not increase and resulted inhibited
[8]
  1-40 β-amyloid peptide production: reduces the same remarkably
[8]; listed as S-adenosylmethionine
  1-40 β-amyloid peptide production: reduced
[9]
  SAM in treated cell lysate relative to endogenous SAM: 6 fold
[3]; DM with 100 μM SAM, 48 hours
  APP gene expression at 48 hours: accelerate the gene expression
[3]; [13]
  APP gene expression at 96 hours: did not increase and resulted inhibited
[10]
  Adam 17 gene expression: over-expression
[10]; listed as S-adenosylmethionine
  Adam 17 gene expression: increased
[4]; DM with 100 μM SAM, 48 hours
  PS2 gene expression at 48 hours: accelerate the gene expression
[4]; [13]
  PS2 gene expression at 96 hours: did not increase and resulted inhibited
[11]
  APP isoforms level (Western blot): did not change
[5]; DM with 100 μM SAM, 48 hours
  PS1 gene expression at 48 hours: accelerate the gene expression
[5]; [13]
  PS1 gene expression at 96 hours: markedly down-regulated
